According to article doi:10.1101/2022.12.19.520966v1 (biorxiv, 2022):
Changes are numbered by the printed parent chain.

How the values were obtained:
Assay in all cases: HTRF IP1 accumulation
Format in all cases: cell-based
[1] = molecular target: T1, T1R2/T1R3 (human sweet taste receptor) (Homo sapiens, UniProt Q7RTX0+Q8TE23); details: agonist; Galpha16gus44 co-transfected; 0.05 M LiCl, 5 min exposure; unreliable
T1 sequence (Q8TE23 20-839): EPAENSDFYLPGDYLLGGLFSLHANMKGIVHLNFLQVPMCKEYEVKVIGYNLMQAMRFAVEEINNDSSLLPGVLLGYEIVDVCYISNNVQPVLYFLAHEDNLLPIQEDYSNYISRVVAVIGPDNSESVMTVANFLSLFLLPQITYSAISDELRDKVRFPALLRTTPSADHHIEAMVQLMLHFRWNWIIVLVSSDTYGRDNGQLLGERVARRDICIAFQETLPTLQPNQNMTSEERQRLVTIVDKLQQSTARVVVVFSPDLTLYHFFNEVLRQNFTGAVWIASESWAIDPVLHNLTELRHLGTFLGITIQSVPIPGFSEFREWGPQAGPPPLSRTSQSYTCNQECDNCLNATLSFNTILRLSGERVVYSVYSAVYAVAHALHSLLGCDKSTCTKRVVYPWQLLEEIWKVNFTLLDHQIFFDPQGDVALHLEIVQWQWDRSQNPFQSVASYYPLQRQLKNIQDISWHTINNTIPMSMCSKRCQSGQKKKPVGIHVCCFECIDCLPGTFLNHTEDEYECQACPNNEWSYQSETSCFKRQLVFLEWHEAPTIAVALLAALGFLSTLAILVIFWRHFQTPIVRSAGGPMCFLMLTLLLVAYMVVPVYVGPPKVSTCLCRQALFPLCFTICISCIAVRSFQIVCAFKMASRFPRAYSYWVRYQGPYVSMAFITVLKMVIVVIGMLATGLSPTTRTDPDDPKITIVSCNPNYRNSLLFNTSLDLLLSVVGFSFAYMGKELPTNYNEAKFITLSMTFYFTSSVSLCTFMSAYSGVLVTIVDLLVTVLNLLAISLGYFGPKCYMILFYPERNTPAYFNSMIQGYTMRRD
T1 sequence (Q7RTX0 21-852): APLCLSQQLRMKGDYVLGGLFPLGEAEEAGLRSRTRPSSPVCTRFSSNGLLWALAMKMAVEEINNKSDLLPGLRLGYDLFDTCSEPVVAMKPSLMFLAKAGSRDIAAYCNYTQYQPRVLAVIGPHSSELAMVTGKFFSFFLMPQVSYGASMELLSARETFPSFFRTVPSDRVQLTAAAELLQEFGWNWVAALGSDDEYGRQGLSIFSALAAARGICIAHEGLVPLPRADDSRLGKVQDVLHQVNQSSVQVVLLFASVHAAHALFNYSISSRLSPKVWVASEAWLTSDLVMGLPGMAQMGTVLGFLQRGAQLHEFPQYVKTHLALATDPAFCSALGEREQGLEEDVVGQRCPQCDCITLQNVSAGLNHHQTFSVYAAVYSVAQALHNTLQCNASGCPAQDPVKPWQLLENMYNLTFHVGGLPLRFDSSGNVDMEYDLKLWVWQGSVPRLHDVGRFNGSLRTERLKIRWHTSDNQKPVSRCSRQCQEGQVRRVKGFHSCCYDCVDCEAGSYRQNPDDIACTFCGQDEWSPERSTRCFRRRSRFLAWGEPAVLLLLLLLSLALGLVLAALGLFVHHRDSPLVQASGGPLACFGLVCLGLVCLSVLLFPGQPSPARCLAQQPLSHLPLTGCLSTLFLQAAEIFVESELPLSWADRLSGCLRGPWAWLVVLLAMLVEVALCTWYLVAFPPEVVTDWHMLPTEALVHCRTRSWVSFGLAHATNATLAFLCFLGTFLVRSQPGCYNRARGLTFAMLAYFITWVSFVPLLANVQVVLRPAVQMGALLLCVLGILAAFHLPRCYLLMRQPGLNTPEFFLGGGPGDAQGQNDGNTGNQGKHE

[2] = molecular target: T1, T1R2/T1R3 (human sweet taste receptor); details: agonist; Galpha16gus44 co-transfected; 0.05 M LiCl, 5 min exposure
[3] = molecular target: T2, T1R2/T1R3 (human sweet taste receptor) (Homo sapiens, UniProt Q7RTX0+Q8TE23, Q8TE23:R317G/Q8TE23:I486V); details: agonist; Galpha16gus44 co-transfected; 0.05 M LiCl, 5 min exposure
T2 sequence (Q8TE23 20-839 R317G/I486V): T1 sequence (Q8TE23 20-839) with R298G, I467V
T2 sequence (Q7RTX0 21-852): T1 sequence (Q7RTX0 21-852)

Emax [1] [%] | EC50 [2] [mM] | EC50 [3] [mM] | Structure (SMILES)
100 |  |  | OC[C@H]1OC(O)[C@H](O)[C@@H](O)[C@@H]1O (stereo partly drawn) [D-glucose]
 | 2 | ~15 | OC[C@@H]1OC(O)[C@@H](O)[C@H](O)[C@H]1O (stereo partly drawn) [L-glucose]
